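All cell lines were grown in 96-well plates and treated with compound for 48 hours. TGI denotes the concentration required for complete inhibition of growth.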
Tests used:
Test in all cases: DTP human tumour cell line panel, 48 h
MDA-MB-231 breast = tested on: MDA-MB-231 breast
BT-549 breast = tested on: BT-549 breast
ACHN renal = tested on: ACHN renal
MALME-3M melanoma = tested on: MALME-3M melanoma
OVCAR-3 ovarian = tested on: OVCAR-3 ovarian
KM12 colon = tested on: KM12 colon
K-562 leukemia = tested on: K-562 leukemia
HCT-15 colon = tested on: HCT-15 colon
MDA-MB-435 = tested on: MDA-MB-435
SR leukemia = tested on: SR leukemia
MOLT-4 leukemia = tested on: MOLT-4 leukemia
786-0 renal = tested on: 786-0 renal
SK-MEL-28 melanoma = tested on: SK-MEL-28 melanoma
HT29 colon = tested on: HT29 colon
SNB-75 CNS = tested on: SNB-75 CNS
MCF7 breast = tested on: MCF7 breast
NCI/ADR-RES ovarian = tested on: NCI/ADR-RES ovarian
SF-295 CNS = tested on: SF-295 CNS
SK-OV-3 ovarian = tested on: SK-OV-3 ovarian
OVCAR-5 ovarian = tested on: OVCAR-5 ovarian
HOP-92 NSCLC = tested on: HOP-92 NSCLC
HCT-116 colon = tested on: HCT-116 colon
CCRF-CEM leukemia = tested on: CCRF-CEM leukemia
DU-145 prostate = tested on: DU-145 prostate
HCC-2998 colon = tested on: HCC-2998 colon
UACC-257 melanoma = tested on: UACC-257 melanoma
SW-620 colon = tested on: SW-620 colon
LOX IMVI melanoma = tested on: LOX IMVI melanoma
RXF 393 renal = tested on: RXF 393 renal
NCI-H226 lung = tested on: NCI-H226 lung
MDA-N = tested on: MDA-N
SN12C renal = tested on: SN12C renal
SF-539 CNS = tested on: SF-539 CNS
NCI-H460 lung = tested on: NCI-H460 lung
TK-10 renal = tested on: TK-10 renal
COLO 205 colon = tested on: COLO 205 colon
NCI-H522 lung = tested on: NCI-H522 lung
A549 NSCLC = tested on: A549 NSCLC
SK-MEL-2 melanoma = tested on: SK-MEL-2 melanoma
SK-MEL-5 melanoma = tested on: SK-MEL-5 melanoma
IGROV1 ovarian = tested on: IGROV1 ovarian
UACC-62 melanoma = tested on: UACC-62 melanoma
SNB-19 CNS = tested on: SNB-19 CNS
HOP-62 NSCLC = tested on: HOP-62 NSCLC
UO-31 renal = tested on: UO-31 renal
PC-3 prostate = tested on: PC-3 prostate
SF-268 CNS = tested on: SF-268 CNS
NCI-H23 lung = tested on: NCI-H23 lung
OVCAR-4 ovarian = tested on: OVCAR-4 ovarian
U251 CNS = tested on: U251 CNS
HL-60(TB) leukemia = tested on: HL-60(TB) leukemia
A498 renal = tested on: A498 renal
EKVX NSCLC = tested on: EKVX NSCLC
OVCAR-8 ovarian = tested on: OVCAR-8 ovarian
T-47D breast = tested on: T-47D breast
M14 melanoma = tested on: M14 melanoma
HS 578T breast = tested on: HS 578T breast
RPMI-8226 leukemia = tested on: RPMI-8226 leukemia
CAKI-1 renal = tested on: CAKI-1 renal

Measured: TGI

COCCOCCOCCOc1ccc(C(C#N)N(CCc2ccccc2)C(=O)c2cc(C(=O)N(CCc3ccccc3)C(C#N)c3ccc(OCCOCCOCCOC)cc3)cc(C(=O)N(CCc3ccccc3)C(C#N)c3ccc(OCCOCCOCCOC)cc3)c2)cc1 (stereo not drawn)
not listed: RPMI-8226 leukemia | CAKI-1 renal
> 100 µM: all other assays above

C=CCn1cnc2c(=O)[nH]c(Nc3ccccc3)nc21
not listed: K-562 leukemia | RXF 393 renal | NCI-H23 lung
> 100 µM: all other assays above
